Experiments:
Format in all cases: biochemical
fibrin polymerization = assay: Clot strength (viscosity) in triggered platelet-poor plasma on rotary rheometer with Doolittle peptide; conditions: 0.5 mM up to 2 mM peptide, shear rate 300/s, 5 pM TF, 4 μM PL, FIG. 6 upper panel
Experimental: (§1) Blood was obtained through venipuncture (1 volume tri-sodium citrate 0.13M to 9 volumes blood). Free flow or minimal suction should be employed, and vacuum containers avoided. Platelet poor plasma (PPP) was obtained by centrifugation of blood twice at 2630 g for 10 min.
(§2) Recombinant relipidated tissue factor (rTF) not containing polybrene or Ca^++ was from Dade Behring (Marburg, Germany). For each experiment, a fresh mixture of Tissue Factor (TF) and phospholipids vesicles (PL) (Avanti, Alabaster, Ala., USA) was prepared, resulting in a final concentration of 5 pM TF and 4 μM PL in Hepes buffer (20 mM, pH 7.35) containing 5 mg/l BSA (Sigma, A-7030). Recombinant tissue plasminogen activator (tPA) was obtained from Boehringer Ingelheim GmbH, Germany as actylase™. […] Upon splitting by thrombin, it releases the fluorescent rhodamine (Rho), which is measured by a 470 nm excitation and a 520 emission filter set. […] The by plasmin released fluorescent 7-Amino-4-methylcoumarin (AMC) is measured by a 365 nm excitation and a 430 nm emission filter set. […]
(§3) Using a signal substrate with a fluorescent leaving group, thrombin generation was measured via a fluorescence detector. The strength of the formed fibrin clot was monitored by an oscillating or rotating measuring system of a specially designed rheometer (Physica MCR 301, Anton Paar Germany GmbH, Ostfildern). […]

thrombin generation = assay: Thrombin generation (fluorogenic substrate, calibrated) in triggered platelet-poor plasma with Doolittle peptide; conditions: 0.5 mM up to 2 mM peptide, shear rate 300/s, FIG. 6 lower panel
Experimental: as §1
as §2, with “A-7030).” for “A-7030). Recombinant tissue plasminogen activator (tPA) was obtained from Boehringer Ingelheim GmbH, Germany as actylase™.”
The calibrator, α2M-Thrombin complex (α2MT), was prepared in house as previously described. The concentration of α2M-Thrombin is measured by its ability to hydrolyze the chromogenic substrate S2238. […] After adding bovine antithrombin and heparin (LEO) this material was ready for use as a thrombin calibrator.
Using a signal substrate with a fluorescent leaving group, thrombin generation was measured via a fluorescence detector. […]

fibrinolysis = assay: Clot strength (torque, oscillation mode) in triggered whole blood with tPA; conditions: 300 U/ml tPA, oscillation 10 Hz, angle 1°, inset
Experimental: as §1, §2, §3

fibrin = assay: Clot strength (viscosity) in tPA-triggered platelet-poor plasma on rotary rheometer; conditions: 100 U/ml tPA, rotation 300/s, FIG. 8 lower panel
Experimental: as §1, §2, §3

plasmin = biological target: T1, plasmin (Homo sapiens, UniProt P00747); assay: Plasmin generation (raw fluorescence, H-Ala-Leu-Lys-AMC) in tPA-triggered platelet-poor plasma; conditions: 100 U/ml tPA, rotation 300/s, FIG. 8 upper panel
T1 construct: from tissue; host or cells: platelet-poor plasma from citrated blood
T1 sequence (P00747 581-810 limits assumed): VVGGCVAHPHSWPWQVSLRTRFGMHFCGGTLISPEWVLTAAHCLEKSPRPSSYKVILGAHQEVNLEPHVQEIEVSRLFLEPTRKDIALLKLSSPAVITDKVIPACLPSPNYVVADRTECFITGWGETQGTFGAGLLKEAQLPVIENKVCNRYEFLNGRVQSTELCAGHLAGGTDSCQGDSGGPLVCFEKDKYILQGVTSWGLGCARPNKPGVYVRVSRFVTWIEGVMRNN
T1 sequence (P00747 97-580 partner limits assumed): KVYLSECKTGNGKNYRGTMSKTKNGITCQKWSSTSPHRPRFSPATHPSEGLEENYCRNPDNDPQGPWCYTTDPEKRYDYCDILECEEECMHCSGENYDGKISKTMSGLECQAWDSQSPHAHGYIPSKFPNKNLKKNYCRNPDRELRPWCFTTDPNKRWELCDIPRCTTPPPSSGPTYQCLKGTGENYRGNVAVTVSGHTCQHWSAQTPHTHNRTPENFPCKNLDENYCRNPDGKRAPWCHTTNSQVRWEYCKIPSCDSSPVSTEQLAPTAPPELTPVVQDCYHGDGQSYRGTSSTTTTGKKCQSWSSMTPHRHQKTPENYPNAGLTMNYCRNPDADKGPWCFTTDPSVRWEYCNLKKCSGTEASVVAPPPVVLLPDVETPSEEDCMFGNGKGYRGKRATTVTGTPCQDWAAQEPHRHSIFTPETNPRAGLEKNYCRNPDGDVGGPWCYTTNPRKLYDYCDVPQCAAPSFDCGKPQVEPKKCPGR
Experimental: as §1
as §2, with “A-7030).” for “A-7030). Recombinant tissue plasminogen activator (tPA) was obtained from Boehringer Ingelheim GmbH, Germany as actylase™.”
A total of 700 μl (in case of plasma) or 800 μl (in case of blood) sample and substrate was added on the thermostated sample holder at 37° C. of the rheometer. […] Immediately after addition of the FluCa, the viscosity (or Torque in case of oscillation of the measuring system) and fluorescence were measured every 10 seconds and every second at 470/520 nm respectively. […]

For “Gly-Pro-Arg-Pro (GPRP; printed: Gly-Pro-Arg-Pro) [Doolittle peptide]”, the “viscosity of the sample compared to the control sample” value (fibrin polymerization) was “significantly decreased the viscosity” and the “effect on the thrombin generation” value (thrombin generation) was “minimal”.
“tPA: Recombinant tissue plasminogen activator (tPA) obtained from Boehringer Ingelheim GmbH as actylase™” was tested, and the “fibrinolysis (torque)” value (fibrinolysis) was “fibrinolysis could be followed”, the “viscosity (degradation of fibrin)” value (fibrin) was “decrease in viscosity” and the “plasmin generation (raw fluorescence)” value (plasmin) was “activation of plasmin”.
